# Reference: patent publication US20260327264A1, “PEPTIDE INHIBITORS OF INTERLEUKIN-23 RECEPTOR” (Zealand Pharma A/S, priority 2023, published 2026)
# Read-outs that look alike come from different tables or passages of the source. *1 amine or outer side, *2 acyl side, *3 side chain or, on linkers, in order; H or OH if unused. Where a SMILES comes first, the peptide text is derived from it. Bridges are numbered along the chain shown (N, C = ends). [ ]: non-standard residue; d: D form. 2Nal = N[C@@H](Cc1ccc2ccccc2c1)C(=O)O; AEF = NCCOc1ccc(C[C@H](N)C(=O)O)cc1; X1 = O=C(Cc1ccc(CN[*:1])cc1)[*:2]; 3Pal = N[C@@H](Cc1cccnc1)C(=O)O; αMeL = CC(C)C[C@](C)(N)C(=O)O; Dab = NCC[C@H](N)C(=O)O
# Experiments:
# [1] = Peptide stability in simulated gastric fluid (SGF); format: in vitro ADME; conditions: pig, pH 1.2, pepsin, 37° C.
# Protocol: (§1) SGF and SIF were prepared based on the United States Pharmacopeia specifications (Test Solutions, United States Pharmacopeia 35, NF 30, 2012). SGF was prepared by dissolving sodium chloride (0.2 g) in 50 mL of water. A volume of 0.7 mL of 10 M HCl was added to adjust the pH of the solution to 1.2 and the volume made up to 100 mL with water. 64 mg porcine pepsin (P7125, Sigma Aldrich) was gently dissolved into 20 mL preheated (37° C.) solution (3.2 g/L) immediately prior to the incubation. SIF was prepared by dissolving monobasic potassium phosphate (0.68 g) in 50 mL of water and adjusting the pH to 6.8 with 1 M NaOH. The volume was subsequently made up to 100 mL with water. 200 mg porcine pancreatin (P1625, Sigma Aldrich) was gently dissolved into 20 mL preheated (37° C.) solution (10 g/L) immediately prior to the incubation.
# (§2) To initiate the incubations, 20 μL of peptide stock solution in 50% v/v isopropanol was deposited at the bottom of a well plate and 580 μL matrix solution was added to give a final substrate concentration of 10 μM. The incubation was performed at 37° C. with gentle shaking. 70 μL aliquots were removed at 0, 1 and 4 hours and quenched into 210 μL ice-cold precipitant solution (95% v/v acetonitrile with 0.1% v/v formic acid). After the last timepoint, the sampling plate was mixed for 10 min on a shaking table and centrifuged 10 min at 2200 g. 70 μL resulting supernatant was diluted with 150 μL water, mixed and centrifugated before analysis by liquid chromatography high resolution mass spectrometry. The zero sample was reinjected after the 4-hour sample to confirm that no drift in instrument sensitivity had occurred during the run. Percent remaining at each timepoint was calculated relative to timepoint zero based on absolute peak areas.
# (§3) Compounds with a SGF stability (after 4 h) above 70% are considered highly SGF stable. Compounds with a SGF stability (after 4 h) between 30-70% (including 30% and 70%) are considered moderately SGF stable. Compounds with a SGF stability (after 4 h) below 30% are considered SGF unstable. SGF stability values above 100% are due to assay uncertainty and indicate the compound has not degraded.
# [2] = Peptide stability in simulated intestinal fluid (SIF); format: in vitro ADME; conditions: pig, simulated intestinal fluid, SIF, pH 6.8, pancreatin, 37° C., 10 μM; for remaining at 4 h, 10 µM: read-out: SIF (% remaining 4 h)
# Protocol: as §1, §2
# as §3, with “SIF” for “SGF”
# [3] = tested on: IL-23 mediated STAT3 signalling (DB cells); assay: Functional inhibition of IL-23 mediated STAT3 signalling (phospho-STAT3 Tyr705) in DB cells; format: cell-based, human; conditions: for hIL-23 (pSTAT3) antagonist % inhibition: Table 3-2, maximal inhibitory response, EC80 of hIL-23
# Procedure, shortened: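 Phospho-STAT3 in lysed DB cells quantified by MSD kit after 90 min exposure to EC80 human IL-23, following 15 min compound pretreatment (37° C, 5% CO2). IC50 and maximal inhibition derived from curves normalized between IL-23-only and buffer-only controls.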
# human IL-23R = molecular target: T1, human IL-23R (Homo sapiens, UniProt Q5VWK5); assay: Binding assay: displacement of fluorophore (TAMRA)-labelled reference compound from human IL-23R (BRET, Nluc-IL23R fusion protein membranes); conditions: for Emax: read-out: % displacement (hIL-23R binding)
# T1 construct: Nanoluc luciferase (Nluc); secretion signal encoded by the plasmid (not specified); expressed in transfected cells; crude membranes used in the assay
# T1 sequence (Q5VWK5 22-629): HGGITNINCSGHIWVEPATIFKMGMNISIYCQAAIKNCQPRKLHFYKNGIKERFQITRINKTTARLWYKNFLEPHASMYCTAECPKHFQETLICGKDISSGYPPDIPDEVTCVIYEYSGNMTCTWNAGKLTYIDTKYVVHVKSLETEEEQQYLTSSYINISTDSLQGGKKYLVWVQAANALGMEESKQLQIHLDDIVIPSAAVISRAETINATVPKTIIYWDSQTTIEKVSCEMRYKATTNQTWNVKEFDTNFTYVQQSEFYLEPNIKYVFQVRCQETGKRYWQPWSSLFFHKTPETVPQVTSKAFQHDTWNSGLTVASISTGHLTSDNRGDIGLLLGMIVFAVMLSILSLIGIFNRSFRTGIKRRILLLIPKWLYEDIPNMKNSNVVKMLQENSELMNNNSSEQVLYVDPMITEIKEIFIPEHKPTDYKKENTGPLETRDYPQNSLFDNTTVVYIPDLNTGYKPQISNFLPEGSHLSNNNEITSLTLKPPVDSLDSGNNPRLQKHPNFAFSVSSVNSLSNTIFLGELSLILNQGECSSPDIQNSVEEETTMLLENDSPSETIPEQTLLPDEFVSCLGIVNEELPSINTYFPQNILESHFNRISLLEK
# [4] = Table 3-2, EC80 of hIL-23, read-out: hIL-23 (pSTAT3) antagonist IC50
Compound,"remaining at 4 h, 10 µM [1] [%]","remaining at 1 h, 10 µM [2] [%]","IC50 [3, 4] [pM]",hIL-23 (pSTAT3) antagonist % inhibition [3] [%],Emax (human IL-23R) [%],"remaining at 1 h, 10 µM [1] [%]","IC50 ([3]; EC80 of hIL-23, read-out: IC50 (pSTAT3)) [pM]","remaining at 4 h, 10 µM [2] [%]",IC50 (human IL-23R) [pM]
"CNC(=O)[C@H](Cc1cccnc1)NC(=O)[C@H](CCO)NC(=O)[C@@H]1CCC(=O)NCc2ccc(cc2)CC(=O)N[C@@H](CO)C(=O)N[C@H]2CCC(=O)NCC[C@H](NC(=O)[C@H](CCC(N)=O)NC(=O)[C@H](Cc3c[nH]c4ccccc34)NC2=O)C(=O)N[C@@H](Cc2ccc(OCCN)cc2)C(=O)N[C@@H](Cc2ccc3ccccc3c2)C(=O)N[C@@](C)(CC(C)C)C(=O)N1 [Compound 36, [4-Aminomethyl-phenylacetyl](1c)*SE(2c)WQ[Dab](2c)[Y(2-aminoethoxy)][2-Nal][2-Me-Leu]E(1c)[hSer][3-(3-Pyridyl)-Ala]-[NHMe]]",103,99,34,103,94,,,,
"CNC(=O)[C@H](Cc1cccnc1)NC(=O)[C@H](CO)NC(=O)[C@@H]1CCC(=O)NCc2ccc(cc2)CC(=O)N[C@@H](CO)C(=O)N[C@H]2CCC(=O)NCC[C@H](NC(=O)[C@H](CCC(N)=O)NC(=O)[C@H](Cc3c[nH]c4ccccc34)NC2=O)C(=O)N[C@@H](Cc2ccc(OCCN)cc2)C(=O)N[C@@H](Cc2ccc3ccccc3c2)C(=O)N[C@@](C)(CC(C)C)C(=O)N1 [Compound 31, [4-Aminomethyl-phenylacetyl](1c)*SE(2c)WQ[Dab](2c)[Y(2-aminoethoxy)][2-Nal][2-Me-Leu]E(1c)S[3-(3-Pyridyl)-Ala]-[NHMe]] ([X1]SEWQ[Dab][AEF][2Nal][αMeL]ES[3Pal]-NHMe; lactam 3-6, N-10)",99,77,60,101,97,101,,,
"CC(C)C[C@]1(C)NC(=O)[C@H](Cc2ccc3ccccc3c2)NC(=O)[C@H](Cc2ccc(OCCN)cc2)NC(=O)[C@@H]2CCNC(=O)CC[C@H](NC(=O)[C@H](CO)NC(=O)Cc3ccc(cc3)CNC(=O)CC[C@@H](C(=O)N[C@@H](CCN)C(=O)N[C@H](Cc3c[nH]cn3)C(N)=O)NC1=O)C(=O)N[C@@H](Cc1c[nH]c3ccccc13)C(=O)N[C@@H](CCC(N)=O)C(=O)N2 [Compound 13, [4-Aminomethyl-phenylacetyl](1c)*SE(2c)WQ[Dab](2c)[Y(2-aminoethoxy)][2-Nal][2-Me-Leu]E(1c)[Dab][{d}H]-[NH2]]",,84,6800,99,100,94,6800,,
"CNC(=O)[C@H](Cc1cccnc1)NC(=O)C1(NC(=O)[C@@H]2CCC(=O)NCc3ccc(cc3)CC(=O)N[C@@H](CO)C(=O)N[C@H]3CCC(=O)NCC[C@H](NC(=O)[C@H](CCC(N)=O)NC(=O)[C@H](Cc4c[nH]c5ccccc45)NC3=O)C(=O)N[C@@H](Cc3ccc(OCCN)cc3)C(=O)N[C@@H](Cc3ccc4ccccc4c3)C(=O)N[C@@](C)(CC(C)C)C(=O)N2)CCOCC1 [Compound 35, [4-Aminomethyl-phenylacetyl](1c)*SE(2c)WQ[Dab](2c)[Y(2-aminoethoxy)][2-Nal][2-Me-Leu]E(1c)[THP][3-(3-Pyridyl)-Ala]-[NHMe]]",,,,,101,101,,96,39
"CNC(=O)[C@H](Cc1cccnc1)NC(=O)[C@](C)(CO)NC(=O)[C@@H]1CCC(=O)NCc2ccc(cc2)CC(=O)N[C@@H](CO)C(=O)N[C@H]2CCC(=O)NCC[C@H](NC(=O)[C@H](CCC(N)=O)NC(=O)[C@H](Cc3c[nH]c4ccccc34)NC2=O)C(=O)N[C@@H](Cc2ccc(OCCN)cc2)C(=O)N[C@@H](Cc2ccc3ccccc3c2)C(=O)N[C@@](C)(CC(C)C)C(=O)N1 [Compound 39, [4-Aminomethyl-phenylacetyl](1c)*SE(2c)WQ[Dab](2c)[Y(2-aminoethoxy)][2-Nal][2-Me-Leu]E(1c)[2-Me-Ser][3-(3-Pyridyl)-Ala]-[NHMe]]",96,,510,101,,,,85,24
"CNC(=O)[C@H](Cc1cccnc1)NC(=O)[C@H](CCN)NC(=O)[C@@H]1CCC(=O)NCc2ccc(cc2)CC(=O)N[C@@H](CO)C(=O)N[C@H]2CCC(=O)NCC[C@H](NC(=O)[C@H](CCNC(C)=O)NC(=O)[C@H](Cc3c[nH]c4ccccc34)NC2=O)C(=O)N[C@@H](Cc2ccc(OCCN)cc2)C(=O)N[C@@H](Cc2ccc3ccccc3c2)C(=O)N[C@@](C)(CC(C)C)C(=O)N1 [Compound 25, [4-Aminomethyl-phenylacetyl](1c)*SE(2c)W[Dab(Ac)][Dab](2c)[Y(2-aminoethoxy)][2-Nal][2-Me-Leu]E(1c)[Dab][3-(3-Pyridyl)-Ala]-[NHMe]] ([X1]SEW[Dab](Ac)[Dab][AEF][2Nal][αMeL]E[Dab][3Pal]-NHMe; lactam 3-6, N-10)",,88,76,100,,93,,,11
"CNC(=O)[C@H](Cc1cccnc1)NC(=O)[C@H](CO)NC(=O)[C@@H]1CCC(=O)NCc2ccc(cc2)CC(=O)N[C@@H](C)C(=O)N[C@H]2CCC(=O)NCC[C@H](NC(=O)[C@H](CCC(N)=O)NC(=O)[C@H](Cc3c[nH]c4ccccc34)NC2=O)C(=O)N[C@@H](Cc2ccc(OCCN)cc2)C(=O)N[C@@H](Cc2ccc3ccccc3c2)C(=O)N[C@@](C)(CC(C)C)C(=O)N1 [Compound 40, [4-Aminomethyl-phenylacetyl](1c)*AE(2c)WQ[Dab](2c)[Y(2-aminoethoxy)][2-Nal][2-Me-Leu]E(1c)S[3-(3-Pyridyl)-Ala]-[NHMe]] ([X1]AEWQ[Dab][AEF][2Nal][αMeL]ES[3Pal]-NHMe; lactam 3-6, N-10)",89,93,,,100,,,,
"CCCC[C@H](NC(=O)[C@@H]1CCC(=O)NCc2ccc(cc2)CC(=O)N[C@@H](CO)C(=O)N[C@H]2CCC(=O)NCC[C@H](NC(=O)[C@H](CCC(N)=O)NC(=O)[C@H](Cc3c[nH]c4ccccc34)NC2=O)C(=O)N[C@@H](Cc2ccc(OCCN)cc2)C(=O)N[C@@H](Cc2ccc3ccccc3c2)C(=O)N[C@@](C)(CC(C)C)C(=O)N1)C(=O)N[C@@H](Cc1cccnc1)C(=O)NC [Compound 32, [4-Aminomethyl-phenylacetyl](1c)*SE(2c)WQ[Dab](2c)[Y(2-aminoethoxy)][2-Nal][2-Me-Leu]E(1c)[Nle][3-(3-Pyridyl)-Ala]-[NHMe]]",90,94,,,98,,,,
